Results published in patent US7772245B2, “Inhibitors of histone deacetylase” (Miikana Therapeutics, Inc., priority 2005, dated 2010).

What was measured:
[1] = system: HCT116 cells; test: Whole cell cytotoxicity assay: Sulforhodamine B; assay type: cell-based; conditions: Homo sapiens, HCT-116; 100 μM compound; 48 hours incubation with drug; Sulforhodamine B staining; read-out: % Inhibition of HCT116 cell growth @ 100 μM
Method: [The source words this procedure for another cell line and reports this cell line under the same test.] The following procedure can be found on the Developmental Therapeutics Program NCl/NIH web site at http://dtp.nci.nih.gov/brancehes/btb/ivclsp.html. • 1. Human tumor cell lines of HT29, A549 and MCF7 are grown in DMEM containing 10% fetal bovine serum and 2 mM L-glutamine. Cells are plated in a 96 well plate at a density of 5000 cells per well in 100 μL of growth medium and incubated at 37° C., 5% CO2, for 24 hours prior to the addition of experimental compounds. • 2. Experimental drugs are solubilized in DMSO for a final concentration of 20 mM immediately prior to use. Drugs are further diluted in growth media for a total of nine drug concentrations and a growth control. At the 24 hour time point, one plate of cells is fixed in situ with TCA as a measurement of the cell population at time zero, or the time of drug addition. • 3. The plates are further incubated with drug for an additional 48 hours. • 4. The cells are fixed in situ by gently aspirating off the culture media and then adding 50 μL of ice cold 10% TCA per well and incubated at 4° C. for 60 minutes. The plates are washed with tap water five times and allowed to air dry for 5 minute. • 5. 50 μL of a 0.4% (w/v) Sulforhodamine B solution in 1% (v/v) acetic acid is added per well and incubated for 30 minutes at room temperature. • 6. Following staining, plates are washed five times with 1% acetic acid to remove any unbound dye and then allowed to air dry for 5 minutes. • 7. Stain is solubilized with 100 μL of 10 mM Tris pH 10.5 per well and placed on an orbital rotator for 5 minutes. • 8. Absorbance is read at 570 nm.

[2] = system: HDAC; test: In vitro fluorescent histone deacetylase assay (Biomol HDAC fluorescent activity kit, HeLa cell nuclear extract); assay type: biochemical; conditions: 100 μM compound; HeLa cell nuclear extract as source of HDAC activity; 50 μM substrate, 10 min at room temperature
Method: Histone deacetylase (HDAC) activity assays were performed using the HDAC fluorescent activity assay/drug discovery kit (Biomol Research Laboratories, Plymouth Meeting, Pa.) essentially according to the manufacturer's instructions. The included HeLa cell nuclear extract, which contains a mosaic of HDAC enzymes and other nuclear factors, was used as the source of HDAC activity. The final substrate concentration in the assay mixture was 50 μM. The reaction was allowed to proceed for 10 min at room temperature before stopping the reaction. Test compounds were prepared as 20 mM stock solutions in DMSO (Molecular Biology grade, Sigma-Aldrich Co., St. Louis, Mo.) and stored at −70° C. Serial dilutions of test compounds were prepared in assay buffer immediately prior to testing. DMSO was determined in a separate trial to have no significant effect on the activity of this assay at concentrations up to 5%; the final DMSO concentration in the wells was no more than 2% and therefore DMSO effects were safely neglected. Assays were performed in white polystyrene 96-well half-area assay plates (Corning, Corning, N.Y.) and measured on a Wallace 1420 fluorescent plate reader (Wallac Oy, Turku, Finland) with an excitation wavelength of 355 nm, an emission wavelength of 460 nm, and a 1 sec signal averaging time.

O=C(NO)c1cnc(N2CCc3c(n(CCN4CCCCC4)c4ccccc34)C2)nc1 [Example 24, N-hydroxy-2-[9-(2-piperidin-1-ylethyl)-1,3,4,9-tetrahydro-2H-b-carbolin-2-yl]pyrimidine-5-carboxamide]
inhibition at 100 µM [1]: 98.9%
% Inhibition of HDAC @ 100 μM [2]: 99%

O=C(NO)c1cnc(N2CCc3c(n(CCN4CCOCC4)c4ccccc34)C2)nc1 [Example 25, N-hydroxy-2-[9-(2-morpholin-4-ylethyl)-1,3,4,9-tetrahydro-2H-b-carbolin-2-yl]pyrimidine-5-carboxamide]
inhibition at 100 µM [1]: 94%
% Inhibition of HDAC @ 100 μM [2]: 98%

O=C(NO)c1cnc(N2CCc3c(n(S(=O)(=O)c4ccccc4)c4ccccc34)C2)nc1 [Example 26, N-hydroxy-2-[9-(phenylsulfonyl)-1,3,4,9-tetrahydro-2H-b-carbolin-2-yl]pyrimidine-5-carboxamide]
inhibition at 100 µM [1]: 99%
% Inhibition of HDAC @ 100 μM [2]: 98.9%

Cn1c2c(c3ccccc31)CCN(c1ncc(C(=O)NO)cn1)C2 [Example 27, N-hydroxy-2-(9-methyl-1,3,4,9-tetrahydro-2H-b-carbolin-2-yl)pyrimidine-5-carboxamide]
inhibition at 100 µM [1]: 98.9%
% Inhibition of HDAC @ 100 μM [2]: 98.3%

O=C(NO)c1cnc(N2CCc3c(n(Cc4ccccc4)c4ccccc34)C2)nc1 [Example 28, N-hydroxy-2-(9-benzyl-1,3,4,9-tetrahydro-2H-b-carbolin-2-yl)pyrimidine-5-carboxamide]
inhibition at 100 µM [1]: 98.7%
% Inhibition of HDAC @ 100 μM [2]: 95.2%

CC(=O)n1c2c(c3ccccc31)CCN(c1ncc(C(=O)NO)cn1)C2 [Example 29, 2-(9-acetyl-1,3,4,9-tetrahydro-2H-b-carbolin-2-yl)-N-hydroxypyrimidine-5-carboxamide]
inhibition at 100 µM [1]: 98%
% Inhibition of HDAC @ 100 μM [2]: 99.8%

O=C(NO)c1cnc(N2CCc3c(n(CN4CCCC4)c4ccccc34)C2)nc1 [Example 30, N-hydroxy-2-{9-[2-pyrrolidin-1-ylmethyl]-1,3,4,9-tetrahydro-2H-b-carbolin-2-yl}pyrimidine-5-carboxamide]
inhibition at 100 µM [1]: 96.8%
% Inhibition of HDAC @ 100 μM [2]: 98.1%

COc1ccc2c(c1)CN(c1ncc(C(=O)NO)cn1)CC2 [Example 31, 2-(7-methoxy-3,4,dihydroisoquinolin-2(1H)-yl)-N-hydroxypyrimidine-5-carboxamide]
inhibition at 100 µM [1]: 99.5%
% Inhibition of HDAC @ 100 μM [2]: 100%

O=C(NO)c1cnc(N2Cc3cccc4cccc(c34)C2)nc1 [Example 32, 2-(1H-benzo[de]isoquinolin-2(3H)-yl)-N-hydroxypyrimidine-5-carboxamide]
inhibition at 100 µM [1]: 94.6%
% Inhibition of HDAC @ 100 μM [2]: 96.6%

Cc1cc2c3c([nH]c2cc1Cl)CCN(c1ncc(C(=O)NO)cn1)C3 [Example 34, N-hydroxy-2-(7-chloro-8-methyl-1,3,4,5-tetrahydro-2H-pyrido[4,3-b]indol-2-yl)pyrimidine-5-carboxamide]
inhibition at 100 µM [1]: 99.3%
% Inhibition of HDAC @ 100 μM [2]: 99.1%

O=C(NO)c1cnc(N2CCc3[nH]c4cc(F)ccc4c3C2)nc1 [Example 35, N-hydroxy-2-(7-fluoro-1,3,4,5-tetrahydro-2H-pyrido[4,3-b]indol-2-yl)pyrimidine-5-carboxamide]
inhibition at 100 µM [1]: 97.3%
% Inhibition of HDAC @ 100 μM [2]: 99.9%

Cc1ccc2c3c([nH]c2c1)CCN(c1ncc(C(=O)NO)cn1)C3 [Example 36, N-hydroxy-2-(7-methyl-1,3,4,5-tetrahydro-2H-pyrido[4,3-b]indol-2-yl)pyrimidine-5-carboxamide]
inhibition at 100 µM [1]: 98.3%
% Inhibition of HDAC @ 100 μM [2]: 99.8%

O=C(NO)c1cnc(N2CCc3[nH]c4ccc([N+](=O)[O-])cc4c3C2)nc1 [Example 37, N-hydroxy-2-(8-nitro-1,3,4,5-tetrahydro-2H-pyrido[4,3-b]indol-2-yl)pyrimidine-5-carboxamide]
inhibition at 100 µM [1]: 97.1%
% Inhibition of HDAC @ 100 μM [2]: 99.9%

CC(C)c1ccc2[nH]c3c(c2c1)CN(c1ncc(C(=O)NO)cn1)CC3 [Example 38, N-hydroxy-2-{8-isopropyl-1,3,4,5-tetrahydro-2H-pyrido[4,3-b]indol-2-yl}pyrimidine-5-carboxamide]
inhibition at 100 µM [1]: 99.5%
% Inhibition of HDAC @ 100 μM [2]: 99.8%

CC(C)(C)c1ccc2[nH]c3c(c2c1)CN(c1ncc(C(=O)NO)cn1)CC3 [Example 39, N-hydroxy-2-{8-tert-butyl-1,3,4,5-tetrahydro-2H-pyrido[4,3-b]indol-2-yl}pyrimidine-5-carboxamide]
inhibition at 100 µM [1]: 99.4%
% Inhibition of HDAC @ 100 μM [2]: 98.8%

COc1ccc(-c2ccc3[nH]c4c(c3c2)CN(c2ncc(C(=O)NO)cn2)CC4)cc1 [Example 40, N-hydroxy-2-{8-[4-methoxyphenyl]-1,3,4,5-tetrahydro-2H-pyrido[4,3-b]indol-2-yl}pyrimidine-5-carboxamide]
inhibition at 100 µM [1]: 98.3%
% Inhibition of HDAC @ 100 μM [2]: 99.8%

Cc1ccc(-c2ccc3[nH]c4c(c3c2)CN(c2ncc(C(=O)NO)cn2)CC4)cc1 [Example 41, N-hydroxy-2-{8-[4-methylphenyl]-1,3,4,5-tetrahydro-2H-pyrido[4,3-b]indol-2-yl}pyrimidine-5-carboxamide]
inhibition at 100 µM [1]: 98.7%
% Inhibition of HDAC @ 100 μM [2]: 99.6%

O=C(NO)c1cnc(N2CCc3[nH]c4ccc(-c5cccc(CO)c5)cc4c3C2)nc1 [Example 43, N-hydroxy-2-{8-[3-(hydroxymethyl)phenyl]-1,3,4,5-tetrahydro-2H-pyrido[4,3-b]indol-2-yl}pyrimidine-5-carboxamide]
inhibition at 100 µM [1]: 98.7%
% Inhibition of HDAC @ 100 μM [2]: 100%

O=C(NO)c1cnc(N2CCc3[nH]c4ccc(-c5cccc(F)c5)cc4c3C2)nc1 [Example 44, N-hydroxy-2-{8-[3-fluorophenyl]-1,3,4,5-tetrahydro-2H-pyrido[4,3-b]indol-2-yl}pyrimidine-5-carboxamide]
inhibition at 100 µM [1]: 97.6%
% Inhibition of HDAC @ 100 μM [2]: 99.9%

O=C(NO)c1cnc(N2CCc3[nH]c4ccc(-c5ccc(F)cc5)cc4c3C2)nc1 [Example 45, N-hydroxy-2-{8-[4-fluorophenyl]-1,3,4,5-tetrahydro-2H-pyrido[4,3-b]indol-2-yl}pyrimidine-5-carboxamide]
inhibition at 100 µM [1]: 98.9%
% Inhibition of HDAC @ 100 μM [2]: 99.9%

O=C(NO)c1cnc(N2CCc3[nH]c4ccc(-c5ccco5)cc4c3C2)nc1 [Example 46, N-hydroxy-2-{8-(fur-2-yl)-1,3,4,5-tetrahydro-2H-pyrido[4,3-b]indol-2-yl}pyrimidine-5-carboxamide]
inhibition at 100 µM [1]: 98.6%
% Inhibition of HDAC @ 100 μM [2]: 99.8%

CN(C)c1ccc(-c2ccc3[nH]c4c(c3c2)CN(c2ncc(C(=O)NO)cn2)CC4)cc1 [Example 48, N-hydroxy-2-{8-[4-dimethylaminophenyl]-1,3,4,5-tetrahydro-2H-pyrido[4,3-b]indol-2-yl}pyrimidine-5-carboxamide]
inhibition at 100 µM [1]: 97.8%
% Inhibition of HDAC @ 100 μM [2]: 99.7%

CSc1cccc(-c2ccc3[nH]c4c(c3c2)CN(c2ncc(C(=O)NO)cn2)CC4)c1 [Example 49, N-hydroxy-2-{8-[3-(methylthio)phenyl]-1,3,4,5-tetrahydro-2H-pyrido[4,3-b]indol-2-yl}pyrimidine-5-carboxamide]
inhibition at 100 µM [1]: 99.3%
% Inhibition of HDAC @ 100 μM [2]: 99.9%

CC(=O)Nc1ccc(-c2ccc3[nH]c4c(c3c2)CN(c2ncc(C(=O)NO)cn2)CC4)cc1 [Example 50, N-hydroxy-2-{8-[4-(N-acetamido)phenyl]-1,3,4,5-tetrahydro-2H-pyrido[4,3-b]indol-2-yl}pyrimidine-5-carboxamide]
inhibition at 100 µM [1]: 89.1%
% Inhibition of HDAC @ 100 μM [2]: 99.7%

O=C(NO)c1cnc(N2CCc3[nH]c4ccc(-c5cncnc5)cc4c3C2)nc1 [Example 51, N-hydroxy-2-{8-(pyrimidin-5-yl)-1,3,4,5-tetrahydro-2H-pyrido[4,3-b]indol-2-yl}pyrimidine-5-carboxamide]
inhibition at 100 µM [1]: 98.7%
% Inhibition of HDAC @ 100 μM [2]: 99.8%

O=C(NO)c1cnc(N2CCc3[nH]c4ccc(-c5ccoc5)cc4c3C2)nc1 [Example 52, N-hydroxy-2-{8-[fur-3-yl]-1,3,4,5-tetrahydro-2H-pyrido[4,3-b]indol-2-yl}pyrimidine-5-carboxamide]
inhibition at 100 µM [1]: 98.9%
% Inhibition of HDAC @ 100 μM [2]: 99.7%
